Laboratory results from patent US8716309B2, “Pharmaceutical composition comprising pyridone derivatives” (priority 2011, dated 2014).

Tests used:
human α7 nAChR = human α7 nAChR (Homo sapiens, UniProt P36544); experiment: cell-based; conditions: EC50 of human α7nAChR(nM), HEK293T/17 cells transfected with human α7 nAChR; PNU-120596 added; relative to epibatidine 1 μM positive control
Male ICR mice = experiment: Novel Object Recognition Test (NORT), MK-801 induced amnesia; type: in vivo; conditions: Mus musculus; ip; dose at which the relative RI is given; doses 0.03˜3 mg/kg; read-out: NORT MED

Sequence of human α7 nAChR (P36544 23-502): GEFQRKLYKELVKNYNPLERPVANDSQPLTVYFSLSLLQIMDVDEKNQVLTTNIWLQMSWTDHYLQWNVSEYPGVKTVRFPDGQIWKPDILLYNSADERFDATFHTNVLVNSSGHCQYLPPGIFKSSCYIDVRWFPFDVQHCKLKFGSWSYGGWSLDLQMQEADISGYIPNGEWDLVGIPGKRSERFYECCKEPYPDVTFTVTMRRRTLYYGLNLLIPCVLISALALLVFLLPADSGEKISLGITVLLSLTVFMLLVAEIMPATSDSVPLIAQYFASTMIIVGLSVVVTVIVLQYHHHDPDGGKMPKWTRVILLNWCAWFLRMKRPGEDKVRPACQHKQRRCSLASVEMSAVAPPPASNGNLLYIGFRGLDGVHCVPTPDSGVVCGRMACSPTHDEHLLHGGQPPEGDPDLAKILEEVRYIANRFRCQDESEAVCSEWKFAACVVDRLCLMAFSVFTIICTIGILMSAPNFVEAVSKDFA

SMILES	EC50 (human α7 nAChR) [nM]	minimal effective dose (Male ICR mice) [mg/kg]
O=C(N[C@H]1CN2CCC1CC2)c1ccc(=O)n(-c2ccc(Cl)cc2)c1 [Example 5, N-[(3R)-1-azabicyclo[2.2.2]octan-3-yl]-1-(4-chlorophenyl)-6-oxopyridine-3-carboxamide]	> 1000	0.1
O=C(NC1CN2CCC1CC2)c1ccc(=O)n(-c2ccc(-c3ccccc3)cc2)c1 (stereo not drawn) [Example 65, N-(1-azabicyclo[2.2.2]octan-3-yl)-1-(4-phenylphenyl)-6-oxo-3-pyridinecarboxamide]	100 to 500	1
CSc1ccccc1-n1cc(C(=O)NC2CN3CCC2CC3)ccc1=O (stereo not drawn) [Example 77, N-(1-azabicyclo[2.2.2]octan-3-yl)-1-[2-(methylthio)phenyl]-6-oxo-3-pyridinecarboxamide]	< 100	0.1
